In patent publication US20110118337A1, “Method of Using Compositions Comprising MIR-192 and/or MIR-215 for the Treatment of Cancer” (Merck Sharp & Dohme Corp., priority 2008, published 2011):

System: HCT116DICER^ex5 cells
Experiment: Cell cycle FACS screen of pools of three siRNAs per gene (G1 after nocodazole, G2/M after aphidicolin)
Assay type: cell-based, human
Conditions: pools of 3 siRNAs/gene at 100 nM final, FACS 66 hours post-transfection, average of two experiments
Text: To identify targets whose modulation influences the cell cycle arrest phenotype observed with miR-192 expression, the 62 candidate genes identified as described in Example 2 and shown in TABLE 3 were silenced individually by transfecting a pool of 3 gene-specific siRNA duplexes per gene (each directed to a different region of the gene) into HCT116DICER^ex5 cells. The siRNA duplex sequences (3 duplexes per gene) used to target each of the 62 genes are shown below in TABLE 5. The siRNA duplex oligonucleotides were obtained from Sigma-Genesys, as described in Linsley, P. S. et al., Mol Cell Biol 27:2240-2252 (2007).
HCT116DICER^ex5 cells were transiently transfected with pools of three different siRNA duplexes per gene at a 100 nM final concentration using Lipofectamine RNAiMax (Invitrogen), according to the manufacturer's instructions. At 48 hours post transfection, cells were left untreated, treated with nocodazole (100 ng/mL, Sigma-Aldrich), or treated with aphidicolin (2 μg/mL, Sigma-Aldrich) for an additional 18 hours before harvesting. The cells transfected with the siRNA pools were then screened by FACS analysis as described in Example 3 for the percentage of cells arrested in G1 or G2/M as compared to the negative siRNA luciferase control.
The siRNA pools tested in this screen were ranked according to the percentage of cells arrested in G1 or G2/M following transfection, as compared with a negative control siRNA targeting luciferase. To avoid being misled by possible RNAi off-target effects, the siRNA pools were deconvoluted to identify genes for which at least 2 different siRNA duplexes from the pool caused the cell cycle arrest phenotype (data not shown).
TABLE 6 summarizes the data obtained 66 hours post-transfection by FACS analysis showing the cell cycle distribution of the HCT116DICER^ex5 cells transfected with siRNA pools of 3 siRNAs/gene. Each pool was analyzed in two separate experiments, and the average percentage of the cells trapped in G1 (following nocodazole treatment), or G2/M (following aphidicolin treatment) are shown in TABLE 6.

Substance: FGF2
- % G2 (Avg), Aphidicholin+ (aphidicolin 2 μg/mL 18 h): 19.8%
- % G1 (Avg), Nocodazole+ (nocodazole 100 ng/mL 18 h): 33.7%
